The source made the active and inactive calls. The rule behind the calls is not given here.
Assays:
[1] = system: Hepatocyte; experiment: Inhibition of P-glycoprotein in rat primary hepatocytes assessed as increase in intracellular rhodamine 123 accumulation at 100 uM after 3 hrs; assay type: cell-based
[2] = system: Hepatocyte; experiment: Inhibition of P-glycoprotein in rat primary hepatocytes assessed as increase in intracellular rhodamine 123 accumulation after 3 hrs; assay type: cell-based
[3] = system: Hepatocyte; experiment: Inhibition of P-glycoprotein in rat primary hepatocytes assessed as increase in intracellular rhodamine 123 accumulation at 100 uM after 3 hrs relative to control; assay type: cell-based
[4] = system: Hepatocyte; conditions: Rattus norvegicus, 10 to 50 uM

`COc1ccc(-n2nnc(CCCN3c4ccccc4Sc4ccccc43)n2)cc1` was tested, and the inhibition [1] was “inactive”.
With `COc1ccc(-n2nnc(CCC(O)CN3c4ccccc4Sc4ccccc43)n2)cc1` (stereo not given) the inhibition [2] was “Dose-dependent effect”.
`COc1ccc(-n2nnc(CCCCN3c4ccccc4Sc4ccccc43)n2)cc1` was tested, and the inhibition [3] was 20%.
In the case of `COc1ccc(-n2nnc(/C=C\C=C\N3c4ccccc4Sc4ccccc43)n2)cc1`, the inhibition [1] was “inactive”.
`COc1ccc(CCN(C)CCCC(C#N)(c2ccc(OC)c(OC)c2)C(C)C)cc1OC` (stereo not given) was tested, and the inhibition [4] was “Active”.
